Some test systems named below: NCI-H460; TK-10; EKVX; HCT-15; NCI-H522; OVCAR-8; SK-OV-3; SN12C; COLO 205; SNB-75; SNB-19; SF-295; IGROV-1; HCT-116; A549; NCI/ADR-RES; MCF7.
Test in all cases: inhibition of tumour cell growth, NCI panel, 48 h

Results on 14 compounds are retold here after ChEMBL document CHEMBL1201862, “PubChem BioAssay data set” (2004).

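Dose response: 5 concentrations. Exposure: 48 h. Format: 96-well plates. Endpoint: linear interpolation; highest concentration if not reached. The concentration for 50% growth inhibition is given as GI50.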 The source made the active and inactive calls. No stated cut-off is given here; in the data, active = GI50 up to about 1.1 µM and inactive = higher.

Turning to `CCCCCCCCCCCCCCCC(=O)OCC1OC(n2cc(F)c(=O)[nH]c2=O)C(NC(=O)N(CCCl)N=O)C(O)C1O` (stereo not drawn), the GI50 with NCI-H460 was 0.152 µM (active); in the test on TK-10 it was 10.1 µM (inactive); in the test on EKVX, 2.58 µM (inactive); in the test with HCT-15, 4.95 µM; in the test on NCI-H522 it was 5.15 µM (inactive); in the test with OVCAR-8, 3.86 µM (inactive). In addition, the GI50 is 5.45 µM (inactive) in the test on SK-OV-3; 2.07 µM (inactive) in the test with SN12C; 4.41 µM (inactive) in the test with COLO 205; 0.228 µM (active) with SNB-75; 0.979 µM (active) in the test on SNB-19; 0.156 µM (active) with SF-295. Moreover, the GI50 with IGROV-1 is 4.43 µM (inactive); in the test with HCT-116 it was 1.22 µM (inactive); in the test with A549, 0.767 µM (active).
For the compound `O=c1[nH]cc(OCC(F)(F)F)c(=O)[nH]1`, the GI50 in the test with NCI-H460 was > 100 µM (inactive); in the test with TK-10, > 100 µM (inactive); with EKVX it was > 100 µM (inactive); in the test with HCT-15 it was over 100 µM; in the test with NCI-H522, > 100 µM (inactive); with OVCAR-8, > 100 µM (inactive). The GI50 with SK-OV-3, with SN12C, with COLO 205, with SNB-75, with SNB-19 and in the test with SF-295 was > 100 µM (inactive) each time. For the same compound, the GI50 in the test with IGROV-1, in the test on HCT-116 and in the test on A549 was > 100 µM (inactive) each time.
Turning to `O=C(NC12CC3CC(CC(C3)C1)C2)C(=O)c1c[nH]c2ccc([N+](=O)[O-])cc12`, the GI50 was 13.5 µM (inactive) in the test with NCI-H460; 24.9 µM (inactive) with TK-10; 97.3 µM (inactive) in the test on EKVX; over 78.9 µM in the test on HCT-15; 25.2 µM (inactive) in the test with NCI-H522; 19 µM (inactive) with OVCAR-8. Also, the GI50 with SK-OV-3 was 76.6 µM (inactive); in the test on SN12C, 31 µM (inactive); in the test on COLO 205 it was 24.5 µM (inactive); in the test on SNB-75, 14.2 µM (inactive); in the test on SNB-19 it was > 20.1 µM (inactive); in the test with SF-295, 6.18 µM (inactive). In addition, the GI50 in the test with IGROV-1 is > 94.2 µM (inactive); in the test on HCT-116 it was 18.7 µM (inactive); with A549, 11.3 µM (inactive).
Turning to `COc1cc(-c2cccs2)sc1-c1cccs1`, the GI50 was 26 µM (inactive) in the test with NCI-H460; 41.6 µM (inactive) in the test with TK-10; 6.55 µM (inactive) in the test on EKVX; 4.4 µM in the test with HCT-15; 31 µM (inactive) in the test with NCI-H522; 97.1 µM (inactive) with OVCAR-8. The GI50 with SK-OV-3 is 31 µM (inactive); with SN12C, 81.8 µM (inactive); with COLO 205, 13.2 µM (inactive); in the test with SNB-75, 14 µM (inactive); with SNB-19 it was > 100 µM (inactive); in the test on SF-295, 23.3 µM (inactive). Moreover, the GI50 in the test with IGROV-1 is 25.5 µM (inactive); in the test with HCT-116, 28.6 µM (inactive); with A549 it was 33.3 µM (inactive).
As to `O=C(Nc1nnn[nH]1)c1nc(O)cc(-c2ccccc2)n1`, the GI50 in the test with NCI-H460, with TK-10, with EKVX, in the test with NCI-H522, in the test with OVCAR-8 and in the test on SK-OV-3 was > 100 µM (inactive) each time. The GI50 in the test on SN12C, in the test with COLO 205, with SNB-75, with SNB-19, in the test on SF-295 and in the test with IGROV-1 was > 100 µM (inactive) throughout. For the same compound, the GI50 in the test on HCT-116 and with A549 was > 100 µM (inactive) each time.
As to `O=[N+]([O-])c1nccn1COCCBr`, the GI50 in the test on NCI-H460 is > 100 µM (inactive); in the test with TK-10, > 100 µM (inactive); in the test with EKVX it was > 100 µM (inactive); in the test with HCT-15 it was over 100 µM; in the test with NCI-H522, > 100 µM (inactive); in the test with OVCAR-8, > 100 µM (inactive). Moreover, the GI50 is > 100 µM (inactive) with SK-OV-3; > 100 µM (inactive) in the test on SN12C; > 10 µM (inactive) in the test on COLO 205; > 100 µM (inactive) in the test on SNB-75; > 100 µM (inactive) with SNB-19; > 100 µM (inactive) in the test on SF-295. For the same compound, the GI50 in the test with HCT-116 and in the test on A549 was > 100 µM (inactive) in each case.
For `CC(=O)NNc1nc(C)c(C(=O)NNC(=O)C(=O)Nc2ccc(C)cc2[N+](=O)[O-])s1`, the GI50 was > 100 µM (inactive) in the test with NCI-H460; > 100 µM (inactive) in the test with TK-10; > 100 µM (inactive) with EKVX; over 100 µM with HCT-15; 20.7 µM (inactive) with NCI-H522; > 100 µM (inactive) in the test on OVCAR-8. Besides, the GI50 with SK-OV-3, in the test with SN12C, with COLO 205, in the test with SNB-75, with SNB-19 and with SF-295 was > 100 µM (inactive) in each case. Moreover, the GI50 in the test on IGROV-1, with HCT-116 and with A549 was > 100 µM (inactive) in each case.
With `S=c1sc2c(Cl)nc(Cl)nc2n1-c1ccccc1`, the GI50 was > 100 µM (inactive) in the test with NCI-H460; > 100 µM (inactive) in the test with TK-10; 61 µM (inactive) with EKVX; 18.1 µM with HCT-15; 11.5 µM (inactive) with NCI-H522; 36.6 µM (inactive) with OVCAR-8. The GI50 was > 100 µM (inactive) in the test on SK-OV-3; 46.2 µM (inactive) in the test on SN12C; > 100 µM (inactive) in the test with COLO 205; 82.6 µM (inactive) in the test on SNB-75; > 100 µM (inactive) in the test on SNB-19; > 100 µM (inactive) in the test on SF-295. Besides, the values for the GI50 in the test on IGROV-1, in the test with HCT-116 and in the test on A549 were 18.2 µM (inactive), 16.4 µM (inactive) and > 100 µM (inactive), respectively.
Regarding `Nc1ncc(CN2CCCC2)c(-c2ccccc2O)n1`, the GI50 in the test with NCI/ADR-RES was > 100 µM (inactive); in the test with NCI-H460 it was > 750 µM (inactive); in the test with TK-10 it was > 750 µM (inactive); in the test with EKVX, > 100 µM (inactive); in the test with HCT-15 it was over 750 µM; with NCI-H522, > 750 µM (inactive). Moreover, the GI50 in the test on OVCAR-8 is > 750 µM (inactive); with MCF7 it was > 100 µM (inactive); in the test on SK-OV-3, > 750 µM (inactive); in the test on SN12C, > 750 µM (inactive); in the test with COLO 205 it was > 750 µM (inactive); with SNB-75, > 750 µM (inactive). Moreover, the GI50 in the test with SNB-19, in the test with SF-295, in the test on IGROV-1, in the test on HCT-116 and in the test with A549 was > 750 µM (inactive) each time.
On to `C=C1CC2CC(O)CC(C1)C2` (stereo not drawn), for which the GI50 with NCI-H460, with TK-10, in the test with EKVX, with NCI-H522, with OVCAR-8 and in the test on SK-OV-3 was > 100 µM (inactive) throughout. Further, the GI50 in the test on SN12C, in the test on COLO 205, in the test with SNB-75, in the test with SNB-19, with SF-295 and in the test with IGROV-1 was > 100 µM (inactive) throughout. The GI50 with HCT-116 and with A549 was > 100 µM (inactive) each time.
Turning to `CC(C)C12C=CC(C)(CC1)n1c(=O)c3cc4ccccc4cc3c(=O)n12` (stereo not drawn), the GI50 in the test with NCI-H460 is 45.5 µM (inactive); in the test on TK-10 it was 29.9 µM (inactive); with EKVX, 43.5 µM (inactive); in the test on HCT-15 it was 33.3 µM; in the test on NCI-H522, 29.3 µM (inactive); in the test on OVCAR-8 it was 75.9 µM (inactive). The GI50 with SK-OV-3 is 52.1 µM (inactive); with SN12C, 34.7 µM (inactive); in the test on COLO 205 it was 41.9 µM (inactive); with SNB-75 it was 33.7 µM (inactive); in the test with SNB-19, 40.5 µM (inactive); in the test with SF-295, 73.5 µM (inactive). For the same compound, the GI50 in the test with IGROV-1 is 47.8 µM (inactive); in the test with HCT-116, 47.2 µM (inactive); with A549, 45.4 µM (inactive).
As for `C=CCCCCCCCCC(=O)NS(=O)(=O)c1ccccc1`, the GI50 in the test on NCI-H460 was > 100 µM (inactive); with TK-10, > 100 µM (inactive); in the test on EKVX it was > 100 µM (inactive); with NCI-H522 it was 55.3 µM (inactive); in the test on OVCAR-8, > 100 µM (inactive); with SK-OV-3 it was > 100 µM (inactive). Besides, the GI50 in the test with SN12C was > 100 µM (inactive); with COLO 205, > 100 µM (inactive); in the test on SNB-75, 92.5 µM (inactive); with SNB-19, > 100 µM (inactive); with SF-295, > 100 µM (inactive); with IGROV-1 it was > 100 µM (inactive). Besides, the GI50 with HCT-116 is 93.8 µM (inactive); in the test with A549 it was 57.7 µM (inactive).
With `COc1ccc(C=O)c([N+](=O)[O-])c1`, the GI50 is 37.5 µM (inactive) in the test on NCI-H460; 87.7 µM (inactive) in the test with TK-10; 99.5 µM (inactive) with EKVX; 9.27 µM in the test with HCT-15; > 100 µM (inactive) in the test with NCI-H522; 31.6 µM (inactive) in the test with OVCAR-8. In addition, the GI50 with SK-OV-3 is > 100 µM (inactive); in the test on SN12C it was 41.7 µM (inactive); in the test on COLO 205, 53.3 µM (inactive); with SNB-75, 52.1 µM (inactive); with SNB-19, 64.6 µM (inactive); with SF-295, 21 µM (inactive). In addition, the GI50 in the test on IGROV-1 is 98.6 µM (inactive); with HCT-116 it was 4.09 µM (inactive); in the test on A549 it was > 100 µM (inactive).
In the case of `CCCCC(C(=O)CCC(=O)Nc1ccc(Cl)c(Cl)c1)C(=O)C(C)C` (stereo not drawn), the GI50 in the test on NCI-H460 is > 100 µM (inactive); in the test on TK-10, 90.4 µM (inactive); in the test on EKVX, > 100 µM (inactive); in the test with HCT-15, over 100 µM; in the test on NCI-H522 it was > 100 µM (inactive); with OVCAR-8 it was > 100 µM (inactive). Also, the GI50 with SK-OV-3 is > 100 µM (inactive); with SN12C, > 100 µM (inactive); in the test on COLO 205 it was > 100 µM (inactive); in the test on SNB-75, 21.6 µM (inactive); in the test on SNB-19, > 100 µM (inactive); in the test with SF-295, 85.3 µM (inactive). Moreover, the GI50 in the test on IGROV-1, in the test on HCT-116 and with A549 was > 100 µM (inactive) throughout.
